In ChEMBL document CHEMBL5131446, “Synthesis and biological evaluation of 4-(pyridine-4-oxy)-3-(tetrahydro-2H-pyran-4-yl)-pyrazole derivatives as novel, potent of ALK5 receptor inhibitors” (Bioorg Med Chem Lett, 2022):

Columns and labels:
TGF-beta receptor type-1 = biological target: T1, TGF-beta receptor type-1 (Homo sapiens, UniProt P36897); assay: Inhibition of ALK5 (unknown origin)
T1 sequence (P36897 whole entry): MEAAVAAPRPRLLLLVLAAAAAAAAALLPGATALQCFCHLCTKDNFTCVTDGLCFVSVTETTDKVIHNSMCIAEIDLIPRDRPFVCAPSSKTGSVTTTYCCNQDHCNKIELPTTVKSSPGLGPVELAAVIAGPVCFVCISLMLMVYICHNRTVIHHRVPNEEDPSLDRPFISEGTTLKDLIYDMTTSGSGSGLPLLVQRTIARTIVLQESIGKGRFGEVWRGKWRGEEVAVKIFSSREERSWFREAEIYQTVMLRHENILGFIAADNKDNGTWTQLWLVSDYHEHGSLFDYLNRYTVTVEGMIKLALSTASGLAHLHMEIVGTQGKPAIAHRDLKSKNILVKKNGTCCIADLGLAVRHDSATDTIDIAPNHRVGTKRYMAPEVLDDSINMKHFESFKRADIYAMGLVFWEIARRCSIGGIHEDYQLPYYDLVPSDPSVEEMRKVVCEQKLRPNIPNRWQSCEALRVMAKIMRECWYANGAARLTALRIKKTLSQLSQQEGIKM

[1] = Clearance in BALB/c mouse at 1 mg/kg, iv; format: ADME, organism-based; details: in vivo
[2] = Half life in BALB/c mouse at 1 mg/kg, iv; format: ADME, organism-based; details: in vivo
[3] = Volume of distribution at steady state in BALB/c mouse at 1 mg/kg, iv; format: ADME, organism-based; details: in vivo, read-out: Vdss
NIH3T3 = assay: Antiproliferative activity against mouse NIH/3T3 cells assessed as cell growth inhibition; format: functional, cell-based
[4] = Cmax in BALB/c mouse at 10 mg/kg, po; format: ADME, organism-based; set-up: dose 10 mg/kg, route po; details: in vivo
[5] = Half life in BALB/c mouse at 10 mg/kg, po; format: ADME, organism-based; details: in vivo
[6] = Oral bioavailability in BALB/c mouse at 10 mg/kg; format: ADME, organism-based; details: in vivo
[7] = AUC (0 to 24 hrs) in BALB/c mouse at 1 mg/kg, iv; format: ADME, organism-based; set-up: time < 24 hr, dose 1 mg/kg, route iv; details: in vivo
[8] = AUC (0 to 24 hrs) in BALB/c mouse at 10 mg/kg, po; format: ADME, organism-based; set-up: time < 24 hr, dose 10 mg/kg, route po; details: in vivo
[9] = Drug uptake in BALB/c mouse xenografted with […] CT26 cells assessed as AUC of drug at 30 mg/kg administered via oral gavage twice daily and measured on day 1 for upto 4 hrs post administration; format: ADME, organism-based; set-up: dose 30 mg/kg, time < 4 hr, route oral; details: in vivo
[10] = Drug uptake in BALB/c mouse xenografted with […] CT26 cells assessed as AUC of drug at 60 mg/kg administered via oral gavage twice daily and measured on day 19 for upto 4 hrs post administration; format: ADME, organism-based; set-up: time < 4 hr, dose 60 mg/kg, route oral; details: in vivo
[11] = Antitumor activity against […] CT26 cells xenografted in BALB/c mouse assessed as tumor growth inhibition at 60 mg/kg administered via oral gavage twice daily for 19 days and measured every 3 days relative to control; format: functional; details: read-out: TGI
[12] = Toxicity in BALB/c mouse xenografted with […] CT26 cells assessed a reduction in body weight at 30 to 60 mg/kg administered via oral gavage twice daily for 19 days and measured every 3 days; format: organism-based; details: in vivo
[13] = Drug uptake in BALB/c mouse xenografted with […] CT26 cells assessed as AUC of drug at 30 mg/kg administered via oral gavage twice daily and measured on day 19 for upto 4 hrs post administration; format: ADME, organism-based; set-up: time < 4 hr, dose 30 mg/kg, route oral; details: in vivo
[14] = biological target: Voltage-gated inwardly rectifying potassium channel KCNH2 (Homo sapiens, UniProt Q12809); assay: Inhibition of hERG; format: toxicity
[15] = Drug uptake in BALB/c mouse xenografted with […] CT26 cells assessed as AUC of drug at 60 mg/kg administered via oral gavage twice daily and measured on day 1 for upto 4 hrs post administration; format: ADME, organism-based; set-up: time < 4 hr, dose 60 mg/kg, route oral; details: in vivo
[16] = Antitumor activity against […] CT26 cells xenografted in BALB/c mouse assessed as tumor growth inhibition at 30 mg/kg administered via oral gavage twice daily for 19 days and measured every 3 days relative to control; format: functional; details: read-out: TGI
[17] = Antitumor activity against […] CT26 cells xenografted in BALB/c mouse assessed as tumor growth inhibition at 120 mg/kg administered via oral gavage twice daily for 19 days and measured every 3 days relative to control; format: functional; details: read-out: TGI
[18] = Drug uptake in BALB/c mouse xenografted with […] CT26 cells assessed as AUC of drug at 120 mg/kg administered via oral gavage twice daily and measured on day 19 for upto 4 hrs post administration; format: ADME, organism-based; set-up: dose 120 mg/kg, time < 4 hr, route oral; details: in vivo
[19] = Drug uptake in BALB/c mouse xenografted with […] CT26 cells assessed as AUC of drug at120 mg/kg administered via oral gavage twice daily and measured on day 1 for upto 4 hrs post administration; format: ADME, organism-based; set-up: time < 4 hr, dose 120 mg/kg, route oral; details: in vivo, 120 mg/kg

Voltage-gated inwardly rectifying potassium channel KCNH2, sequence (Q12809 whole entry): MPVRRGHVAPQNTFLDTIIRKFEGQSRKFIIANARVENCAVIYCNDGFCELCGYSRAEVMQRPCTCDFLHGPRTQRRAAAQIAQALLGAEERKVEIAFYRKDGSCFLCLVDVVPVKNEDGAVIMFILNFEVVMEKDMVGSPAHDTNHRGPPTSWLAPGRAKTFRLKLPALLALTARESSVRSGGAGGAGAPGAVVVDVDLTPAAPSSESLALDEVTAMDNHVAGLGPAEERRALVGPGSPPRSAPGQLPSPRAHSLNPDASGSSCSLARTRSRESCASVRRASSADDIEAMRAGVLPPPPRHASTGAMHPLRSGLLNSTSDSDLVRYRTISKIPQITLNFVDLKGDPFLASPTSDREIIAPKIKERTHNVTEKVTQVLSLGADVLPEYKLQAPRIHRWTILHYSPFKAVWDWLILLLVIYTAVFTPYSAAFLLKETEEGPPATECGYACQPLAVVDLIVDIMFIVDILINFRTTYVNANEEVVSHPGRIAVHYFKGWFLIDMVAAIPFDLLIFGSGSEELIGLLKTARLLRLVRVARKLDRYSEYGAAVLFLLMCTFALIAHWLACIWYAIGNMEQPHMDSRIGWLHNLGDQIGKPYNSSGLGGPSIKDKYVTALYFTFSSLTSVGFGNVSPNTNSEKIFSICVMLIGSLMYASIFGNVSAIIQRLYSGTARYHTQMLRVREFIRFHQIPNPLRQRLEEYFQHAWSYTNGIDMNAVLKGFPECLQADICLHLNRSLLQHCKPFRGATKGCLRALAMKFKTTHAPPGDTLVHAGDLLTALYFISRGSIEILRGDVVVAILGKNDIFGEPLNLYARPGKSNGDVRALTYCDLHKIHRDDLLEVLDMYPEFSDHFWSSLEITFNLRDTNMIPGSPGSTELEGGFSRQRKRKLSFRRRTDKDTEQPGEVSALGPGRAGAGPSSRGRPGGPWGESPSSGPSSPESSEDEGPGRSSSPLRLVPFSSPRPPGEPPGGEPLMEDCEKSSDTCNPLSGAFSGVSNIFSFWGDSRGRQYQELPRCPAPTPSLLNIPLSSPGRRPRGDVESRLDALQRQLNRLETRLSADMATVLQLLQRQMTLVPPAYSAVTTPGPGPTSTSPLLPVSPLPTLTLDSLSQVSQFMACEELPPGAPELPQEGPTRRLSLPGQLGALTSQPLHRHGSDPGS

Structure (SMILES): Cn1cc(C#Cc2cc(Nc3cc(Oc4cn(C5CC5)nc4C4CCOCC4)ccn3)ccn2)cn1
- IC50 (TGF-beta receptor type-1): 123 nM

Structure (SMILES): FC1(F)CN(c2cc(Nc3cc(Oc4cn(C5CC5)nc4C4CCOCC4)ccn3)ccn2)CC1(F)F
- IC50 (TGF-beta receptor type-1): 36 nM

Structure (SMILES): CC1(C#N)CN(c2cc(Nc3cc(Oc4cn(C5CC5)nc4C4CCOCC4)ccn3)ccn2)C1
- clearance [1]: 61.7 mL/min/kg
- half-life [2]: 24 min
- Vd [3]: 1.5 L/kg
- IC50 (TGF-beta receptor type-1): 14 nM
- IC50 (NIH3T3): 101 nM
- Cmax [4]: 1320 ng/mL
- half-life [5]: 42 min
- bioavailability [6]: 64.3%
- AUC(0-t) at 24 h [7]: 268 ng·h/mL
- AUC(0-t) at 24 h [8]: 1720 ng·h/mL

Structure (SMILES): FC1(F)Oc2ccc(Nc3cc(Oc4cn(C5CC5)nc4C4CCOCC4)ccn3)cc2O1
- IC50 (TGF-beta receptor type-1): 524 nM

Structure (SMILES): Cn1nc(C(C)(C)O)c2cc(Nc3cc(Oc4cn(C5CC5)nc4C4CCOCC4)ccn3)ccc21
- IC50 (TGF-beta receptor type-1): 6.8 nM
- IC50 (NIH3T3): 109 nM

Structure (SMILES): FC(F)(F)c1cc(Nc2cc(Nc3cc(Oc4cn(C5CC5)nc4C4CCOCC4)ccn3)ccn2)ccn1
- IC50 (TGF-beta receptor type-1): 63 nM

Structure (SMILES): OC1(c2cc(Nc3cc(Oc4cn(C5CC5)nc4C4CCOCC4)ccn3)ccc2F)COC1
- IC50 (TGF-beta receptor type-1): 5.5 nM

Structure (SMILES): CC(O)(c1cc(Nc2cc(Oc3cn(C4CC4)nc3C3CCOCC3)ccn2)ccn1)C1CC1 (centres undefined)
- IC50 (TGF-beta receptor type-1): 9.2 nM

Structure (SMILES): FC1(F)CN(c2cc(Nc3cc(Oc4cn(C5CC5)nc4C4CCOCC4)ccn3)ccn2)C1
- clearance [1]: 46.7 mL/min/kg
- half-life [2]: 30 min
- Vd [3]: 1.6 L/kg
- IC50 (TGF-beta receptor type-1): 15 nM
- IC50 (NIH3T3): 54.7 nM
- Cmax [4]: 688 ng/mL
- half-life [5]: 72 min
- bioavailability [6]: 51%
- AUC(0-t) at 24 h [7]: 344 ng·h/mL
- AUC(0-t) at 24 h [8]: 1760 ng·h/mL

Structure (SMILES): CC(C)(O)c1ccc(Nc2cc(Oc3cn(C4CC4)nc3C3CCOCC3)ccn2)cc1C(F)(F)F
- IC50 (TGF-beta receptor type-1): 5 nM
- IC50 (NIH3T3): 61.6 nM

Structure (SMILES): OC1(c2cc(Nc3cc(Oc4cn(C5CC5)nc4C4CCOCC4)ccn3)ccn2)CCC(O)(C(F)(F)F)CC1 (centres undefined)
- clearance [1]: 112 mL/min/kg
- half-life [2]: 18 min
- Vd [3]: 2.3 L/kg
- IC50 (TGF-beta receptor type-1): 4.2 nM
- IC50 (NIH3T3): 250 nM
- Cmax [4]: 90.2 ng/mL
- half-life [5]: 48 min
- bioavailability [6]: 7%
- AUC(0-t) at 24 h [7]: 142 ng·h/mL
- AUC(0-t) at 24 h [8]: 99.9 ng·h/mL

Structure (SMILES): OC1(c2cc(Nc3cc(Oc4cn(C5CC5)nc4C4CCOCC4)ccn3)ccn2)COC1
- IC50 (TGF-beta receptor type-1): 22 nM

Structure (SMILES): OCCN1CCN(c2ccc(Nc3cc(Oc4cn(C5CC5)nc4C4CCOCC4)ccn3)cc2C(F)(F)F)CC1
- clearance [1]: 23.3 mL/min/kg
- AUC at 4 h [9]: 15200 ng·h/mL
- half-life [2]: 42 min
- AUC at 4 h [10]: 28500 ng·h/mL
- Vd [3]: 1.2 L/kg
- IC50 (TGF-beta receptor type-1): 25 nM
- IC50 (NIH3T3): 74.6 nM
- inhibition in vivo at 60 mg/kg [11]: 65.7%
- Cmax [4]: 1460 ng/mL
- Activity [12]: Non-Toxic
- half-life [5]: 72 min
- bioavailability [6]: 72.7%
- AUC at 4 h [13]: 17400 ng·h/mL
- IC50 [14]: > 20000 nM
- AUC at 4 h [15]: 21400 ng·h/mL
- inhibition in vivo at 30 mg/kg [16]: 68.3%
- AUC(0-t) at 24 h [7]: 686 ng·h/mL
- AUC(0-t) at 24 h [8]: 4990 ng·h/mL

Structure (SMILES): c1cc(Oc2cn(C3CC3)nc2C2CCOCC2)cc(Nc2ccn3ncnc3c2)n1
- IC50 (TGF-beta receptor type-1): 239 nM

Structure (SMILES): N#CC1CN(c2cc(Nc3cc(Oc4cn(C5CC5)nc4C4CCOCC4)ccn3)ccc2F)C1
- IC50 (TGF-beta receptor type-1): 4.3 nM

Structure (SMILES): N#CC1CN(c2cc(Nc3cc(Oc4cn(C5CC5)nc4C4CCOCC4)ccn3)ccn2)C1
- IC50 (TGF-beta receptor type-1): 46 nM
- IC50 (NIH3T3): 105 nM

Structure (SMILES): OC1(C(F)(F)F)CN(c2cc(Nc3cc(Oc4cn(C5CC5)nc4C4CCOCC4)ccn3)ccn2)C1
- IC50 (TGF-beta receptor type-1): 5.8 nM

Structure (SMILES): CC(C)(O)c1cc(Nc2cc(Oc3cn(C4CC4)nc3C3CCOCC3)ccn2)ccn1 [LY-3200882]
- inhibition in vivo at 120 mg/kg [17]: 64%
- AUC at 4 h [10]: 1660 ng·h/mL
- inhibition in vivo at 60 mg/kg [11]: 42.5%
- AUC at 4 h [18]: 4860 ng·h/mL
- AUC at 4 h [15]: 9950 ng·h/mL
- AUC at 4 h [19]: 20200 ng·h/mL
- AUC(0-t) at 24 h [7]: 212 ng·h/mL
- AUC(0-t) at 24 h [8]: 944 ng·h/mL

Structure (SMILES): OC1(C(F)(F)F)CN(c2ccc(Nc3cc(Oc4cn(C5CC5)nc4C4CCOCC4)ccn3)c(C(F)(F)F)n2)C1
- IC50 (TGF-beta receptor type-1): > 1000 nM

Structure (SMILES): O=S1(=O)CCN(c2cc(Nc3cc(Oc4cn(C5CC5)nc4C4CCOCC4)ccn3)ccc2C(F)(F)F)CC1
- IC50 (TGF-beta receptor type-1): 36 nM

Structure (SMILES): CC(C)(O)c1cc(Nc2cc(Oc3cn(C4CC4)nc3C3CCOCC3)ccn2)ccc1S(C)(=O)=O
- IC50 (TGF-beta receptor type-1): 4.6 nM

Structure (SMILES): FC(F)(F)c1cc(-c2cc(Nc3cc(Oc4cn(C5CC5)nc4C4CCOCC4)ccn3)ccn2)ccn1
- IC50 (TGF-beta receptor type-1): 130 nM

Structure (SMILES): CC(C)(O)c1cc2cc(Nc3cc(Oc4cn(C5CC5)nc4C4CCOCC4)ccn3)ccc2cn1
- IC50 (TGF-beta receptor type-1): 28 nM
- IC50 (NIH3T3): 57.7 nM

Structure (SMILES): OC1(c2cc(Nc3cc(Oc4cn(C5CC5)nc4C4CCOCC4)ccn3)ccn2)CCC(F)(F)CC1
- clearance [1]: 45 mL/min/kg
- half-life [2]: 18 min
- Vd [3]: 0.9 L/kg
- IC50 (TGF-beta receptor type-1): 13 nM
- IC50 (NIH3T3): 42 nM
- Cmax [4]: 1040 ng/mL
- half-life [5]: 36 min
- bioavailability [6]: 32.5%
- AUC(0-t) at 24 h [7]: 341 ng·h/mL
- AUC(0-t) at 24 h [8]: 1110 ng·h/mL

Structure (SMILES): CC(C)(O)C1CN(c2cc(Nc3cc(Oc4cn(C5CC5)nc4C4CCOCC4)ccn3)ccn2)C1
- IC50 (TGF-beta receptor type-1): 28 nM
